# Legend:
# NF-κB = assay: RT-qPCR of NF-κB-associated cytokine mRNA in LPS-stimulated SOD1^G93A primary microglia; type: cell-based, rat; details: adult microglia isolated from symptomatic SOD1^G93A rats
# Experimental: FIG. 8F: Analysis by RT-qPCR of mRNA levels of NF-κB-associated proinflammatory cytokines CCL2, IL-6, IL-1β, and TNFα following LPS-stimulation in SOD1^G93A primary microglia.
# BANA inhibits LPS-induced NF-κB-p65 nuclear translocation in SOD1^G93A microglia. Nuclear NF-κB-p65 colocalizing with DAPI nuclear staining is denoted in yellow. […] All quantitative data are expressed as mean±SEM; data were analyzed by Ordinary one-way ANOVA followed by Tukey's multiple comparisons test, ****p<0,0001, 3 replicates of 4 independent experiments. Scale bar=20 μm. […] BANA prevents NF-κB-mediated gene transcription induced by LPS. Data are expressed as mean±SEM; data were analyzed by Ordinary one-way ANOVA followed by Tukey's multiple comparisons test, *p=0.0395 (CCL2) *p=0.0409 (IL-6) **p=0.0049 (IL-10) *p=0.0292 **p=0.0063 (TNFα). 2 replicates of 3 independent experiments.
# SOD1^G93A rats = assay: Neuromuscular junction innervation analysis in whole mounted EDL muscle; type: in vivo, rat; details: 100 mg/kg/day post-paralysis; vs vehicle
# Experimental: Extensor digitorium longus (EDL) muscles from the NonTg and SOD1^G93A hind limbs were dissected. Then, tissues were blocked for 2 h at room temperature (BSA 5% v/v, Triton X-100 0.8% v/v in PBS pH=7.4), incubated with primary antibodies or fluorescent probes at 4° C. overnight: axon and post-synaptic plates were carried out using 1:1000 rabbit anti-heavy chain neurofilament-Alexa Fluor 555 (Millipore, #MAB5256A5) and fluorescently labeled a-bungarotoxin-FITC [αBTX, (Thermo Fisher Scientific, B13422)], axon presynaptic terminals were labeled with 1:300 rabbit anti-synaptophysin-Alexa Fluor 555 (Abcam, #ab206870). After washing 4 times with PBS, whole-mount muscles were mounted using DPX. Structural changes of the neuromuscular junction were scored using maximum-intensity projections of images acquired from whole-mounted muscles. Neuromuscular junction innervation analysis was performed taking into consideration those postsynaptic motor endplates occupied by a presynaptic axon terminal, where full innervation was defined as at least 80% of overlapping between pre- and postsynaptic. An average of 100 neuromuscular junctions per animal was analyzed using the ImageJ software.
# [1] = LC50 in cell culture of HT-29; type: cell-based; details: human, HT-29 cells; HT-29 cell culture
# NLRP3 inflammasome = assay: Inflammasome activation in THP-1 cells (LPS and ATP), IL-1β ELISA; type: cell-based, Human; details: 30 μM, in first or second signal (LPS and ATP), compared with vehicle
# Experimental: The effect of BANA or BA over NF-κB-dependent gene expression was studied by qPCR using THP-1 cells. THP-1 cells were differentiated into macrophages and treated with BANA (30 μM) or BA (30 μM) for 2 hs, followed by stimulation with LPS (100 ng/mL, for 3-4 h).
# For inflammasome activation, THP-1 cells were treated with LPS (as above) followed by exposure to ATP (5 mM, 45 min). IL-1β in the supernatant was then measured by ELISA (B&D OptEIA TM, San Diego, CA, USA).
compound,measurement,setting,value
"O=C(O)c1ccc(/C=C/[N+](=O)[O-])cc1 [BANA, (E)-4-(2-nitrovinyl) benzoic acid]","LPS-induced NF-κB-dependent transcription of CCL2/MCP1, IL-6, IL-1β and TNFα (RT-qPCR)",NF-κB,prevented
same,motor endplate denervation in the EDL muscle,SOD1^G93A rats,significantly reduced
same,CC50,[1],80 µM
same,release of IL-1β,NLRP3 inflammasome,almost completely prevented
